Data taken from patent US20260325542A1, “CANCER TARGETING COMPLEX, AND COMPOSITION COMPRISING SAME FOR PREVENTING OR TREATING CANCER” (EWHA UNIVERSITY - INDUSTRY COLLABORATION FOUNDATION, priority 2023, published 2026).
“Also recorded” adds a separate entry of the source.

Tests used:
c-Myc [1] = test: Western blot, c-Myc level in 4T1 cells; type: cell-based, mouse; conditions: 0 to 10 μM, 24 hours
Method: Accordingly, Western blot analysis was performed to confirm the anticancer ability by evaluating the presence or absence of degradation of BRD4 and other related proteins (e.g., c-Myc and Bcl-2) when cancer cells were treated with the complex for cancer targeting (ECMal-PROTAC) of example 1. The complex for cancer targeting (ECMal-PROTAC) of example 1 and ARV-771 were prepared as samples.
First, 1×10^5 4T1 cells were dispensed into each well of a 6-well culture plate and cultured for 24 hours at 37° C. and 5% carbon dioxide atmosphere. The cell culture medium was supplemented with various concentrations of ARV-771 (0 to 10 μM) or the complex for cancer targeting (ECMal-PROTAC) of example 1 (0 to 10 μM), and cultured at 37° C. for 24 hours. After the culture was completed, the cells were washed 3 times with PBS, and lysed with a lysis buffer containing 1% […]. Cell debris from the recovered lysate was removed by centrifugation at 12,000 rpm for 25 minutes. After recovering the supernatant, the protein amount was measured using a BCA kit. The supernatant was loaded onto a 10% sodium dodecyl sulfate-polyacrylamide gel. Electrophoresis (SDS-PAGE) was performed, followed by blotting onto a polyvinylidene difluoride (PVDF) membrane. […] The immunoreactive bands on the PVDF membrane were analyzed through an ECL (enhanced chemiluminescence) system.

thiol-blocked BSA = thiol-blocked BSA (Bos taurus, UniProt P02769); test: Selective binding: thiol-blocked BSA, RP-HPLC; parameters: species or system bovine; conditions: thiol-blocked BSA 200 μM, ECMal-PROTAC 140 μM, up to 60 minutes
Method: To confirm whether the binding of ECMal-PROTAC of example 1 and albumin is specific, thiol-blocked BSA was used. Specifically, thiol-blocked BSA was prepared by mixing 4-maleimidobutyric acid and BSA with a cyc34 blocking agent. The thiol-blocked BSA was diluted with PBS to prepare a solution (200 μM). This was co-incubated by mixing it with the ECMal-PROTAC aqueous solution (140 μM) of example 1 at a 1:1 volume ratio. The culture was collected at incubation times of 0 minutes, 5 minutes, 30 minutes, and 60 minutes. It was quenched with mercaptoethanol, and HPLC spectra for each sample were acquired through concentration gradient of the eluent (ACN/H2O, 20/80 to 80/20 (v/v), 30 minutes).
From the HPLC results for the BSA and complex for cancer targeting (ECMal-PROTAC) mixture in Experimental Example 1 and the thiol-blocked BSA and complex for cancer targeting (ECMal-PROTAC) mixture in Experimental Example 2, the reduction in the HPLC peak area associated with the complex for cancer targeting (ECMal-PROTAC) was quantified.

[2] = test system: major organs and cancer tissue; test: Ex vivo biodistribution in major organs and cancer tissue; parameters: species or system mouse; conditions: 24 hours after i.v. 3 mg/kg
Method: 5-week-old female Balb/c and Balb/c nu/nu mice were purchased from NaraBio, Inc (Seoul, Republic of Korea). The mice underwent a 2-week acclimatization period before the example. The mice were raised under free-feeding conditions in a breeding room maintained at a temperature of 22±2° C. and humidity of 40-60% during the example. The light and dark cycle was regulated at 12-hour intervals. All examples were conducted in compliance with the relevant laws and institutional guidelines of the KIST Institutional Animal Care and Use Committee (IACUC; Approval No.: 2021-143).
Cancer animal models were prepared by inoculating 1×10^6 4T1 cells into the left thigh of the mice, and raising them until the tumor volume reached 150-200 mm3.
Samples were prepared as follows to analyze the in vivo therapeutic effect of the complex for cancer targeting (ECMal-PROTAC) of example 1. A Cy5.5-BSA solution (Cy5.5-Alb, Preparation Example 1, 200 μM) diluted with PBS was co-incubated by mixing it with an ECMal-PROTAC aqueous solution (140 μM) of example 1 at a 1:1 volume ratio. […]
To analyze the sample distribution in the excised cancer tissue, the excised major organs and cancer tissue were imaged with the IVIS Lumina Series III system (PerkinElmer, Waltham, MA, USA) and analyzed with Living Image software (PerkinElmer).

c-Myc [3] = test: Western blot of excised cancer tissue, c-Myc; type: in vivo, mouse
Method: (§1) The control group was administered saline (10 mg/kg) once every 3 days for 15 days through the tail vein (total 4 administrations). The comparison group was administered ARV-771 (10 mg/kg) once every 3 days for 15 days through the tail vein (total 4 administrations). The example group was administered ECMal-PROTAC 10 mg/kg (wquiv. to ARV-771) of example 1 once every 3 days for 15 days through the tail vein (total 4 administrations).

[4] = Body weight and systemic side effects; type: in vivo, mouse; conditions: 10 mg/kg, i.v., once every 3 days for 15 days
Method: as §1
Tumor size and body weight were measured every two days for the control group, the comparison group, and the example group.

Sequence of thiol-blocked BSA (P02769 25-607): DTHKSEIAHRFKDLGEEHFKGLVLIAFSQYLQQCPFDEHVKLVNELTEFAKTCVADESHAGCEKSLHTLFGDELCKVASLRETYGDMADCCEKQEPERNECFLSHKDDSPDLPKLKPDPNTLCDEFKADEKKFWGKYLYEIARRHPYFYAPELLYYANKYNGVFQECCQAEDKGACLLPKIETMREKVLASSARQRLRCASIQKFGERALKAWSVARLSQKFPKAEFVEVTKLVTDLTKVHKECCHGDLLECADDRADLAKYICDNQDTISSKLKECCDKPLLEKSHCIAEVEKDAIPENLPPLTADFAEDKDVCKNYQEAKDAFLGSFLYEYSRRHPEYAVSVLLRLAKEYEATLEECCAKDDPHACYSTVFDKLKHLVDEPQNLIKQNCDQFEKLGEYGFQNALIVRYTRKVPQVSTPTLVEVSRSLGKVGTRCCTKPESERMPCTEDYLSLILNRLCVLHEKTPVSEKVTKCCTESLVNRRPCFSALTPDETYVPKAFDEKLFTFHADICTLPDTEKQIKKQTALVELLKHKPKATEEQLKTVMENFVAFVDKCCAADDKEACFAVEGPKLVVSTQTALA

Cc1ncsc1-c1ccc([C@H](C)NC(=O)[C@@H]2C[C@@H](OC(=O)CCCCn3nnc4c3CCC3C(CC4)C3COC(=O)NCCOCCOCCNC(=O)CCN3C(=O)C=CC3=O)CN2C(=O)[C@@H](NC(=O)COCCCOCCNC(=O)C[C@@H]2N=C(c3ccc(Cl)cc3)c3c(sc(C)c3C)-n3c(C)nnc32)C(C)(C)C)cc1 (some centres unmarked) [ECMal-PROTAC]
c-Myc level (c-Myc [1]): reduces the levels; also recorded: reduced expression | interaction with thiol-blocked BSA (thiol-blocked BSA): did not form an interaction | elimination through the kidneys [2]: very low probability of kidney excretion | c-Myc level in cancer tissue vs control (c-Myc [3]; Western blot, 10 mg/kg): much lower levels | c-Myc level in cancer tissue, example group vs comparison group (c-Myc [3]; Western blot, vs ARV-771 group (so in the source)): no significant difference | relative expression level of c-Myc, fold lower than control group (c-Myc [3]; cancer tissue, FIG. 32): 2.2 times | systemic side effects [4]: did not show serious systemic side effects | weight loss [4]: no significant weight loss was observed
